Tested on: 922993-354-T-J3-PDC complex spheroids, viability
Assay: Anticancer human tumor 922993-354-T-J3-PDC patient-derived endometrial carcinoma cell line growth inhibition [GQUAD]
Conditions: for IC50: curve of first compound; for viability, T/C: stronger effect = lower value
Source text: DNA G-quadruplex Stabilizer Agents in Combinations in Complex Spheroids
A high-throughput screen of multi-cell type tumor spheroids was designed to identify active combinations of DNA G-quadruplex stabilizer agents and targeted small molecules. Complex spheroids include a stromal component modeled by human endothelial cells (HUVEC) and fibroblasts modeled by human mesenchymal stem cells (MSCs). The concentration ranges selected for each drug and investigational agent were based upon clinically achievable concentrations if the clinical Cmax of the agent was known.
Compounds. The drugs and investigational agents: pidnarulex (CX-5461; NSC782164), APTO-253 (NSC789042), BRACO-19 (NSC847499), peposertib (NSC802822), ceralasertib (NSC780249), elimusertib (NSC800525), camonsertib (NSC841442), AZD-1390 (NSC803789), olaparib (NSC753686), talazoparib (NSC767125), ART-558 (NSC835418), sotorasib (NSC818433), MRTX-1133 (NSC836407), SN-38 (NSC673596), topotecan (NSC609699), etoposide (NSC141540), doxorubicin (NSC123127), gemcitabine (NSC613327), 5-fluorouracil (NSC19893), paclitaxel (NSC125973), vemurafenib (NSC761431), panobinostat (NSC761190), R-306465 (JNJ-16241199; NSC773264), adavosertib (NSC754352), TP-3654 (NSC805149), carboplatin (NSC241240), KSQ-4279 (NSC840948), and staurosporine (NSC755774) were obtained from the National Cancer Institute (NCI) Developmental Therapeutics Program Chemical Repository (34). The FDA-approved anticancer drug set is available from the NCI Developmental Therapeutics Program. […] The stock solutions were prepared in dimethyl sulfoxide (DMSO, Sigma-Aldrich, St. Louis, MO, cat. D2650) at 800-fold the tested concentration and stored at -70 degrees C prior to their use. All drugs and investigational agents were tested over a range starting from a high concentration at or near the clinical Cmax and decreasing in half-log increments. If the clinical Cmax for an agent had not been determined, the highest concentration tested was 10 microM.
2.3 Cell Culture. All cells were maintained in an incubator at 37 degrees C and 5% CO2 with 95% humidity. The PDC lines were cultured according to standard operating procedures established by the NCI PDMR. All PDCs were thawed and cultured in Matrigel-coated flasks prepared with a working solution of 1X Ham's F-12 nutrient mix, without supplementation (Invitrogen, cat. 11765054), 100 U/mL penicillin-streptomycin (Invitrogen, cat. 15140122), and 2.5% Matrigel (Corning Inc., cat. 354248) for the first three passages. The 857933-349-R-J2-PDC line was cultured in 6C/Colon 1B media, which includes advanced DMEM/F-12 (Thermo Fisher Scientific, cat. 12634028), 10 mM HEPES (Thermo Fisher Scientific, cat. 15630080), 1X GlutaMAX supplement (Thermo Fisher Scientific, cat. 35050061), 0.1 mg/mL primocin (InvivoGen, cat. ant-pm-2), 10% defined fetal bovine serum, heat inactivated (HyClone Laboratories Inc., cat. SH30070.03HI), 50% L-WRN conditioned media (ATCC, cat. CRL-3276), 1.25 mM N-Acetyl-L-cysteine (Sigma-Aldrich, cat. A9165), 10 mM nicotinamide (Sigma-Aldrich, cat. N0636), 1X B-27 supplement (Thermo Fisher Scientific, cat. 17504044), 1X N-2 supplement (Thermo Fisher Scientific, cat. 17502048), 10 microM Y-27632 dihydrochloride (Tocris Bioscience, cat. 1254), and 50 ng/mL human EGF recombinant protein (Thermo Fisher Scientific, cat. PHG0311). The 485176-168-R4-J1-PDC line was cultured in Panc media, which includes all 6C/Colon 1B media components plus 100 ng/mL human FGF-10 (Thermo Fisher Scientific, cat. 100-26), 500 nM SB-431542 (Selleckchem, cat. S1067), and gastrin (Tocris, cat. 3006).
[…]

[1] = second compound 0.0316 µM, first compound 0.0316 µM
[2] = second compound 0.0316 µM, first compound 0.316 µM
[3] = second compound 0.1 µM, first compound 0.0316 µM
[4] = second compound 0.1 µM, first compound 0.316 µM
[5] = second compound 0.316 µM, first compound 0.0316 µM
[6] = second compound 0.316 µM, first compound 0.316 µM
[7] = second compound 1 µM, first compound 0.0316 µM
[8] = second compound 1 µM, first compound 0.316 µM
[9] = second compound 3.16 µM, first compound 0.0316 µM
[10] = second compound 3.16 µM, first compound 0.316 µM
[11] = second compound 10 µM, first compound 0.0316 µM
[12] = second compound 10 µM, first compound 0.316 µM
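Note: spheroids exposed to compounds for seven days.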
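Throughout, for viability, T/C: 100% = DMSO vehicle control viability.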

In the case of `Cc1cccc(N(C)C(=O)C2C(O)CCN2c2nc(C)cc(C(F)(F)F)c2C#N)c1` (centres undefined) + CN(C)c1ccc(Nc2c3ccc(NC(=O)CCN4CCCC4)cc3nc3cc(NC(=O)CCN4CCCC4)ccc23)cc1, the IC50 (second compound 0.0316 µM) is reported as over 10 µM, the IC50 (second compound 0.1 µM) is reported as over 10 µM and the IC50 (second compound 0.316 µM) is reported as over 10 µM. The IC50 (second compound 1 µM) was over 10 µM, the IC50 (second compound 3.16 µM) was over 10 µM and the IC50 (second compound 10 µM) was over 10 µM. For the same compound, the viability, T/C [1] was 80.8%, the viability, T/C (second compound 0.0316 µM, first compound 0.1 µM) was 89.6% and the viability, T/C [2] was 80.6%. It also gave a viability, T/C (second compound 0.0316 µM, first compound 1 µM) of 92.5%, a viability, T/C (second compound 0.0316 µM, first compound 3.16 µM) of 90.1% and a viability, T/C (second compound 0.0316 µM, first compound 10 µM) of 95.4%. The viability, T/C [3] was 89.6%, the viability, T/C (second compound 0.1 µM, first compound 0.1 µM) was 111% and the viability, T/C [4] was 87.5%. The viability, T/C (second compound 0.1 µM, first compound 1 µM) was 103%, the viability, T/C (second compound 0.1 µM, first compound 3.16 µM) was 94.9% and the viability, T/C (second compound 0.1 µM, first compound 10 µM) was 67.6%. It also gave a viability, T/C [5] of 90.4%, a viability, T/C (second compound 0.316 µM, first compound 0.1 µM) of 105% and a viability, T/C [6] of 95.5%. For the same compound, the viability, T/C (second compound 0.316 µM, first compound 1 µM) was 91.8%, the viability, T/C (second compound 0.316 µM, first compound 3.16 µM) was 83.2% and the viability, T/C (second compound 0.316 µM, first compound 10 µM) was 69.6%. It also gave a viability, T/C [7] of 85.3%, a viability, T/C (second compound 1 µM, first compound 0.1 µM) of 82.7% and a viability, T/C [8] of 101%. The viability, T/C (second compound 1 µM, first compound 1 µM) was 93.6%, the viability, T/C (second compound 1 µM, first compound 3.16 µM) was 97.1% and the viability, T/C (second compound 1 µM, first compound 10 µM) was 82.1%. It also gave a viability, T/C [9] of 96.8%, a viability, T/C (second compound 3.16 µM, first compound 0.1 µM) of 102% and a viability, T/C [10] of 104%. The viability, T/C (second compound 3.16 µM, first compound 1 µM) was 106%, the viability, T/C (second compound 3.16 µM, first compound 3.16 µM) was 99.3% and the viability, T/C (second compound 3.16 µM, first compound 10 µM) was 91.5%. For the same compound, the viability, T/C [11] was 105%, the viability, T/C (second compound 10 µM, first compound 0.1 µM) was 133% and the viability, T/C [12] was 113%. For the same compound, the viability, T/C (second compound 10 µM, first compound 1 µM) was 106%, the viability, T/C (second compound 10 µM, first compound 3.16 µM) was 103% and the viability, T/C (second compound 10 µM, first compound 10 µM) was 80.3%.
In the case of `Cn1ncnc1[C@H]1c2n[nH]c(=O)c3cc(F)cc(c23)N[C@@H]1c1ccc(F)cc1` + CN(C)c1ccc(Nc2c3ccc(NC(=O)CCN4CCCC4)cc3nc3cc(NC(=O)CCN4CCCC4)ccc23)cc1, the IC50 (second compound 0.0316 µM) is reported as over 0.316 µM, the IC50 (second compound 0.1 µM) is reported as over 0.316 µM and the IC50 (second compound 0.316 µM) is reported as 0.222 µM. For the same compound, the IC50 (second compound 1 µM) was over 0.316 µM, the IC50 (second compound 3.16 µM) was over 0.316 µM and the IC50 (second compound 10 µM) was over 0.316 µM. For the same compound, the viability, T/C (second compound 0.0316 µM, first compound 0.000999 µM) was 98.4%, the viability, T/C (second compound 0.0316 µM, first compound 0.00316 µM) was 83.2% and the viability, T/C (second compound 0.0316 µM, first compound 0.00999 µM) was 68.9%. For the same compound, the viability, T/C [1] was 79.6%, the viability, T/C (second compound 0.0316 µM, first compound 0.0999 µM) was 95.2% and the viability, T/C [2] was 60.4%. It also gave a viability, T/C (second compound 0.1 µM, first compound 0.000999 µM) of 111%, a viability, T/C (second compound 0.1 µM, first compound 0.00316 µM) of 93.7% and a viability, T/C (second compound 0.1 µM, first compound 0.00999 µM) of 98.1%. It also gave a viability, T/C [3] of 90.1%, a viability, T/C (second compound 0.1 µM, first compound 0.0999 µM) of 91.8% and a viability, T/C [4] of 55.4%. It also gave a viability, T/C (second compound 0.316 µM, first compound 0.000999 µM) of 97.4%, a viability, T/C (second compound 0.316 µM, first compound 0.00316 µM) of 85.7% and a viability, T/C (second compound 0.316 µM, first compound 0.00999 µM) of 91.7%. It also gave a viability, T/C [5] of 111%, a viability, T/C (second compound 0.316 µM, first compound 0.0999 µM) of 84.4% and a viability, T/C [6] of 34.7%. For the same compound, the viability, T/C (second compound 1 µM, first compound 0.000999 µM) was 93.6%, the viability, T/C (second compound 1 µM, first compound 0.00316 µM) was 108% and the viability, T/C (second compound 1 µM, first compound 0.00999 µM) was 96%. The viability, T/C [7] was 92.1%, the viability, T/C (second compound 1 µM, first compound 0.0999 µM) was 109% and the viability, T/C [8] was 60.1%. The viability, T/C (second compound 3.16 µM, first compound 0.000999 µM) was 78%, the viability, T/C (second compound 3.16 µM, first compound 0.00316 µM) was 83.5% and the viability, T/C (second compound 3.16 µM, first compound 0.00999 µM) was 109%. For the same compound, the viability, T/C [9] was 106%, the viability, T/C (second compound 3.16 µM, first compound 0.0999 µM) was 105% and the viability, T/C [10] was 72.2%. It also gave a viability, T/C (second compound 10 µM, first compound 0.000999 µM) of 108%, a viability, T/C (second compound 10 µM, first compound 0.00316 µM) of 118% and a viability, T/C (second compound 10 µM, first compound 0.00999 µM) of 123%. For the same compound, the viability, T/C [11] was 107%, the viability, T/C (second compound 10 µM, first compound 0.0999 µM) was 98.5% and the viability, T/C [12] was 83%.

Source: PubChem BioAssay AID2060489 (Molecular Pharmacology Branch, DTP, NCI, 2025)
